From US11110171B2, “PD-1 related cancer therapy” (New York University, priority 2017, dated 2021)

Key:
[1] = system: phosphorylation of ERK, PLCγ and ZAP70 in Jurkat T cells; assay: Immunoblot of PD-1 signaling in Jurkat T cells stimulated with anti-CD3 or anti-CD3+PDL2 beads; type: cell-based, human; settings: SAP-deficient (SAP KD) Jurkat T cells, SHP099 10 uM for one hour, anti-CD3+PDL2 beads 5 minutes
[2] = system: IL-2 secretion of human CD3+ T cells; assay: IL-2 secretion (ELISA) of primary human CD3+ T cells stimulated with anti-CD3 or anti-CD3+PDL2 beads; type: cell-based; settings: control or SAP KD siRNA, anti-CD3+PDL2 beads 24 hours
Experimental: FIG. 13. (a) Jurkat T cells were transfected with non-targeting siRNA control and siRNA to SAP, followed by immunoblot analysis. […] Media was harvested and IL-2 levels were measured (ELISA). * P<0.05, NS not significant, n=3, unpaired t test. (c) control vector or SAP-expressing vector for 48 hours and samples were analyzed for SAP expression by immunoblotting. (d) Cell expressing SAP were stimulated overnight and CD69 expression levels were recorded by FACS. (e) T cells from XLP patients and healthy controls were tested for PD-1 expression by FACS analysis. For FIG. 7b 13b, the bars from left to right for each set are: Control, CD3, and CD3+PDL2.
By contrast, overexpression of SAP-GFP (FIG. 13c and FIG. 5b) abrogated the ability of PD-1 to inhibit anti-CD3-induced IL-2 secretion (FIG. 5c), CD69 up regulation (FIG. 5d and FIG. 13d), IFN-γ release (FIG. 5e), and T cell adhesion to fibronectin-coated wells (FIG. 5f). Thus, SAP appears to be a negative regulator of PD-1 signaling and function in T cells.
Primary human T cells were isolated from whole blood using RosetteSep (Stemcell) followed by Ficoll-Paque, according to the manufacturer's instructions. The cells were maintained in enriched media (HEPES 25 mM, Sodium pyruvate 100 mM, Nonessential amino acid, and L-Glutamine) at 5% C02 and 37° C. […]

## CC1(N)CCN(c2cnc(-c3cccc(Cl)c3Cl)c(N)n2)CC1.Cl [SHP099]
[1]
  PD-1's ability to inhibit the phosphorylation of ERK, PLCγ and ZAP70: abrogated
[2]
  PD-1's ability to inhibit IL-2 secretion: abrogation
